# Data: patent US20260000642A1 (Tay Therapeutics Limited, priority 2022, published 2026)
# Where “and” joins values, the source holds several entries; their conditions need not be identical. Identical values can stand only once.
# System: collagen-induced arthritis in Lewis rats
# Experiment: Collagen-induced arthritis (CIA) model in rats: body weight, paw volume, clinical scores, clinical observations; as to Detailed Clinical Scores, left forelimb: key of the grades not given here; as to Detailed Clinical Scores, left hind limb: key of the grades not given here; as to Detailed Clinical Scores, right forelimb: key of the grades not given here; as to Detailed Clinical Scores, right hind limb: key of the grades not given here; as to Detailed Clinical Scores, score: key of the grades not given here; as to Overall clinical score: key of the grades not given here
# Details: for Animal paw volume / Animal body weight percent change: Group 3 (CIA + Dexamethasone); for Animal paw volume: individual animals 1-8; for Animal paw volume percent change (%): individual animals, CIA + reference compound (Groups 3, 4); for Average animal body weight percent change: CIA + compound; for Detailed Clinical Scores, left forelimb / Detailed Clinical Scores, left hind limb / Detailed Clinical Scores, right forelimb / Detailed Clinical Scores, right hind limb / Detailed Clinical Scores, score: per animal ID; for Overall clinical score: individual CIA rats
# [1] = CIA rats, daily P.O. for 21 days
structure (smiles),measurement,setting,value
C[C@@H]1C[C@H]2[C@@H]3CCC4=CC(=O)C=C[C@]4(C)[C@@]3(F)[C@@H](O)C[C@]2(C)[C@@]1(O)C(=O)CO [dexamethasone],animals that gained weight by the end of the study (of 8),"CIA rats, day 21 vs day 0, daily P.O. for 21 days",4/8
same,diarrhea over the 21-day period,[1],did not have diarrhea
same,"increase in body weight, day 21 compared to day 0",[1],1.3%
same,Animal paw volume,"Day 0, L paw",1.35 mL and 1.31 mL and 1.39 mL and 1.33 mL and 1.30 mL (2×) and 1.34 mL and 1.36 mL
same,Animal paw volume percent change (%),"Day 0, L paw",0.00%
same,Animal paw volume,"Day 0, R paw",1.34 mL and 1.30 mL (2×) and 1.38 mL and 1.35 mL and 1.29 mL and 1.36 mL and 1.37 mL
same,Animal paw volume percent change (%),"Day 0, R paw",0.00%
same,Average animal body weight percent change,Day 0,0.00%
same,"Detailed Clinical Scores, left forelimb","Day 0, CIA",0
same,"Detailed Clinical Scores, left hind limb","Day 0, CIA",0
same,"Detailed Clinical Scores, right forelimb","Day 0, CIA",0
same,"Detailed Clinical Scores, right hind limb","Day 0, CIA",0
same,"Detailed Clinical Scores, score","Day 0, CIA",0
same,Overall clinical score,Day 0,0
same,Average animal body weight percent change,Day 1,−2.80%
same,Average animal body weight percent change,Day 2,−3.22%
same,Average animal body weight percent change,Day 3,−4.37%
same,Average animal body weight percent change,Day 4,−4.95%
same,Average animal body weight percent change,Day 5,−4.95%
same,Animal paw volume,"Day 6, L paw",1.31 mL and 1.29 mL (3×) and 1.34 mL and 1.28 mL
same,Animal paw volume percent change (%),"Day 6, L paw",−2.97% and −1.53% and −3.61% and −3.02% and −3.09% and −3.08% and −4.12% and −5.51%
same,Animal paw volume,"Day 6, R paw",1.30 mL (3×) and 1.28 mL (2×) and 1.34 mL and 1.27 mL
same,Animal paw volume percent change (%),"Day 6, R paw",−3.00% and −1.16% and 2.91% and −1.56% and 12.70% and −5.90% and −5.13%
same,Average animal body weight percent change,Day 6,−4.41%
same,"Detailed Clinical Scores, left forelimb","Day 6, CIA",0
same,"Detailed Clinical Scores, left hind limb","Day 6, CIA",0
same,"Detailed Clinical Scores, right forelimb","Day 6, CIA",0
same,"Detailed Clinical Scores, right hind limb","Day 6, CIA",0
same,"Detailed Clinical Scores, score","Day 6, CIA",0
same,Overall clinical score,Day 6,0
same,Average animal body weight percent change,Day 7,−3.35%
same,Average animal body weight percent change,Day 8,−3.90%
same,Average animal body weight percent change,Day 9,−1.84%
same,Average animal body weight percent change,Day 10,−2.30%
same,Average animal body weight percent change,Day 11,−1.24%
same,Animal paw volume,"Day 12, L paw",1.37 mL and 1.28 mL (2×) and 1.30 mL and 1.29 mL
same,Animal paw volume percent change (%),"Day 12, L paw",−10.41% and −7.66% and −1.44% and −3.40% and −1.54% and −6.54% and −3.00% and −5.51%
same,Animal paw volume,"Day 12, R paw",1.37 mL and 1.27 mL and 1.29 mL
same,Animal paw volume percent change (%),"Day 12, R paw",−6.74% and −3.09% and −0.73% and −7.43% and −1.56% and −9.27% and −7.01% and −5.86%
same,Average animal body weight percent change,Day 12,−1.18%
same,"Detailed Clinical Scores, left forelimb","Day 12, CIA",0
same,"Detailed Clinical Scores, left hind limb","Day 12, CIA",0
same,"Detailed Clinical Scores, right forelimb","Day 12, CIA",0
same,"Detailed Clinical Scores, right hind limb","Day 12, CIA",0
same,"Detailed Clinical Scores, score","Day 12, CIA",0
same,Overall clinical score,Day 12,0
same,Animal paw volume,"Day 13, L paw",1.40 mL and 1.29 mL (2×) and 1.30 mL and 1.31 mL
same,Animal paw volume percent change (%),"Day 13, L paw",−8.92% and −5.36% and 0.72% and −3.02% and 0.00% and −4.23% and −2.25% and −5.51%
same,Animal paw volume,"Day 13, R paw",1.27 mL and 1.38 mL and 1.28 mL and 1.31 mL and 1.29 mL
same,Animal paw volume percent change (%),"Day 13, R paw",−5.99% and −2.32% and 0.36% and −7.43% and −0.78% and −6.95% and −3.69% and −5.86%
same,Average animal body weight percent change,Day 13,−0.91%
same,"Detailed Clinical Scores, left forelimb","Day 13, CIA",0
same,"Detailed Clinical Scores, left hind limb","Day 13, CIA",0
same,"Detailed Clinical Scores, right forelimb","Day 13, CIA",0
same,"Detailed Clinical Scores, right hind limb","Day 13, CIA",0
same,"Detailed Clinical Scores, score","Day 13, CIA",0
same,Overall clinical score,Day 13,0
same,Animal paw volume,"Day 14, L paw",1.39 mL and 1.27 mL and 1.28 mL and 1.29 mL
same,Animal paw volume percent change (%),"Day 14, L paw",−8.18% and −5.36% and 0.00% and −4.53% and −1.54% and −5.00% and −3.75% and −8.46%
same,Animal paw volume,"Day 14, R paw",1.38 mL and 1.29 mL
same,Animal paw volume percent change (%),"Day 14, R paw",−5.62% and −2.70% and 0.00% and −8.92% and −2.33% and −7.72% and −5.17% and −8.06%
same,Average animal body weight percent change,Day 14,−1.24%
same,"Detailed Clinical Scores, left forelimb","Day 14, CIA",0
same,"Detailed Clinical Scores, left hind limb","Day 14, CIA",0
same,"Detailed Clinical Scores, right forelimb","Day 14, CIA",0
same,"Detailed Clinical Scores, right hind limb","Day 14, CIA",0
same,"Detailed Clinical Scores, score","Day 14, CIA",0
same,Overall clinical score,Day 14,0
same,Animal paw volume,"Day 15, L paw",1.36 mL and 1.28 mL and 1.33 mL and 1.27 mL
same,Animal paw volume percent change (%),"Day 15, L paw",−8.92% and −7.28% and −2.17%
same,Animal paw volume,"Day 15, R paw",1.36 mL and 1.27 mL (2×) and 1.32 mL
same,Animal paw volume percent change (%),"Day 15, R paw",−6.74% and −4.25% and −1.45%
same,Average animal body weight percent change,Day 15,0.43%
same,"Detailed Clinical Scores, left forelimb","Day 15, CIA",0
same,"Detailed Clinical Scores, left hind limb","Day 15, CIA",0
same,"Detailed Clinical Scores, right forelimb","Day 15, CIA",0
same,"Detailed Clinical Scores, right hind limb","Day 15, CIA",0
same,"Detailed Clinical Scores, score","Day 15, CIA",0
same,Overall clinical score,Day 15,0
same,Average animal body weight percent change,Day 16,−0.57%
same,Average animal body weight percent change,Day 17,0.62%
same,Animal paw volume,"Day 18, L paw",1.28 mL and 1.45 mL and 1.31 mL and 1.29 mL and 1.34 mL and 1.30 mL
same,Animal paw volume percent change (%),"Day 18, L paw",−5.20% and −6.51% and 4.33%
same,Animal paw volume,"Day 18, R paw",1.28 mL and 1.44 mL and 1.31 mL and 1.29 mL (2×) and 1.34 mL
same,Animal paw volume percent change (%),"Day 18, R paw",−4.49% and −4.63% and 4.36%
same,Average animal body weight percent change,Day 18,1.02%
same,"Detailed Clinical Scores, left forelimb","Day 18, CIA rats",0
same,"Detailed Clinical Scores, left hind limb","Day 18, CIA rats",0
same,"Detailed Clinical Scores, right forelimb","Day 18, CIA rats",0
same,"Detailed Clinical Scores, right hind limb","Day 18, CIA rats",0
same,"Detailed Clinical Scores, score","Day 18, CIA rats",0
same,Overall clinical score,Day 18,0
same,Animal paw volume,"Day 19, L paw",1.28 mL (2×) and 1.44 mL and 1.30 mL (2×) and 1.33 mL
same,Animal paw volume percent change (%),"Day 19, L paw",−5.20% and −6.90% and 3.61%
same,Animal paw volume,"Day 19, R paw",1.27 mL (2×) and 1.44 mL and 1.31 mL and 1.32 mL and 1.30 mL
same,Animal paw volume percent change (%),"Day 19, R paw",−5.24% and −6.18%
same,Average animal body weight percent change,Day 19,1.53%
same,"Detailed Clinical Scores, left forelimb","Day 19, CIA rats",0
same,"Detailed Clinical Scores, left hind limb","Day 19, CIA rats",0
same,"Detailed Clinical Scores, right forelimb","Day 19, CIA rats",0
same,"Detailed Clinical Scores, right hind limb","Day 19, CIA rats",0
same,"Detailed Clinical Scores, score","Day 19, CIA rats",0
same,Overall clinical score,Day 19,0
same,Average animal body weight percent change,Day 20,1.66%
same,Animal paw volume,"Day 21, L paw",1.43 mL and 1.31 mL (2×) and 1.30 mL (2×)
same,Animal paw volume percent change (%),"Day 21, L paw",−6.32% and −6.90%
same,Animal paw volume,"Day 21, R paw",1.43 mL and 1.31 mL and 1.30 mL (2×) and 1.32 mL
same,Animal paw volume percent change (%),"Day 21, R paw",−5.99% and −6.18%
same,Average animal body weight percent change,Day 21,1.30%
same,"Detailed Clinical Scores, left forelimb","Day 21, CIA rats",0
same,"Detailed Clinical Scores, left hind limb","Day 21, CIA rats",0
same,"Detailed Clinical Scores, right forelimb","Day 21, CIA rats",0
same,"Detailed Clinical Scores, right hind limb","Day 21, CIA rats",0
same,"Detailed Clinical Scores, score","Day 21, CIA rats",0
same,Overall clinical score,Day 21,0
same,Animal body weight percent change,"Day 0, individual animals",0.00%
same,Animal body weight percent change,"Day 1, individual animals",0.66% and −7.41% and −1.72% and −2.37% and −1.20% and −6.21%
same,Animal body weight percent change,"Day 2, individual animals",−0.66% and −6.79% and 1.15% and −1.78% and −3.01% and −8.07%
same,Animal body weight percent change,"Day 3, individual animals",−1.99% and −11.11% and 0.57% and −2.96% and −2.41% and −9.94%
same,Animal body weight percent change,"Day 4, individual animals",−2.65% and −9.26% and −2.30% and −5.33% and −6.02%
same,Animal body weight percent change,"Day 5, individual animals",−2.65% and −8.02% and −5.17% and −2.96% and −4.82%
same,Animal body weight percent change,"Day 6, individual animals",−2.65% and −6.17% and −1.72% and −4.73% and −6.63%
same,Animal body weight percent change,"Day 7, individual animals",−0.66% and −5.56% and 2.30% and −4.14% and −3.61%
same,Animal body weight percent change,"Day 15, individual animals",9.93% and −3.09% and 2.30% and 0.59% and −1.20% and −6.83% and 2.33% and −0.63%
same,Animal body weight percent change,"Day 16, individual animals",3.97% and −5.56% and 7.47% and −0.59% and −4.22% and −8.70% and 1.16% and 1.88%
same,Animal body weight percent change,"Day 17, individual animals",5.96% and −4.32% and 8.05% and −2.37% and 0.60% and −6.83% and −1.16% and 5.00%
same,Animal body weight percent change,"Day 18, individual animals",3.97% and −6.17% and 8.62% and −2.37% and 0.00% and −5.59% and 4.07% and 5.63%
same,Animal body weight percent change,"Day 19, individual animals",7.28% and −9.26% and 10.34% and 0.59% and 1.20% and −5.59% and 5.81% and 1.88%
same,Animal body weight percent change,"Day 20, individual animals",7.95% and −3.70% and 5.75% and 2.37% and 0.60% and −4.35% and 4.65% and 0.00%
same,Animal body weight percent change,"Day 21, individual animals",8.61% and −3.70% and 7.47% and 0.00% and −3.01% and −5.59% and 2.91% and 3.75%
